Measurements: ChEMBL document CHEMBL1151024, “Synthesis and cardiotonic activity of 2,9-dihydro-6-(5-methyl-3-oxo-2,3,4,5-tetrahydropyridazin-6-yl)pyrazolo[4,3-b][1,4]benzoxazine” (Bioorg Med Chem Lett, 1993)
In brackets after ≈: the same amount, converted by molar mass.

Columns and labels:
[1] = Solubility in 1 M HCl; assay type: physicochemical; conditions: read-out: S
Canis familiaris [2] = test: Maximum increase in cardiac force at 75 ug/Kg was observed in an anesthetized dog model(iv); assay type: functional, Canis lupus familiaris
Canis familiaris [3] = test: The mean arterial blood pressure drop after administration was determined; assay type: functional, Canis lupus familiaris
Canis familiaris [4] = species: Canis familiaris; test: The differential (dp/dt) maximal rise in blood pressure with respect to time was evaluated; assay type: functional, Canis lupus familiaris
Canis familiaris [5] = test: Tested for effective dose required to produce cardiotonic activity after intravenous administration in anesthetized dog model; assay type: functional; conditions: Canis lupus familiaris
[6] = Solubility in 1 M HCl; compound is insoluble; assay type: physicochemical; conditions: buffer
Canis familiaris [7] = test: The high peak activity was evaluated at a dose of 35 ug/kg intravenously in dog; assay type: functional, Canis lupus familiaris

solubility [1] [µg/mL]	S [6]	SMILES	Increase (Canis familiaris [2]) [%]	Decrease in blood pressure (Canis familiaris [3]) [%]	Change (Canis familiaris [4]) [%]	ED50 (Canis familiaris [5]) [mg/kg]	Activity (Canis familiaris [7])
300 (≈ 1060 µM)		CC1CC(=O)NN=C1c1ccc2c(c1)Oc1cn[nH]c1N2 (centres undefined)	256	21	119	0.015	
	Insoluble	CC1CC(=O)NN=C1c1ccc2c(c1)OCC(=O)N2 (centres undefined) [BEMORADAN]	127			0.0054	200
